Values of other authors as cited in patent US20220331377A1, “DELIVERY VEHICLE FOR IN SITU DELIVERING OF PHARMACEUTICAL AGENTS” (priority 2019, published 2022).

Tested on: C. difficile
Settings: patients; P=0.05; cited from earlier work

CN[C@H](CC(C)C)C(=O)N[C@H]1C(=O)N[C@@H](CC(N)=O)C(=O)N[C@H]2C(=O)N[C@H]3C(=O)N[C@H](C(=O)N[C@H](C(=O)O)c4cc(O)cc(O)c4-c4cc3ccc4O)[C@H](O)c3ccc(c(Cl)c3)Oc3cc2cc(c3O[C@@H]2O[C@H](CO)[C@@H](O)[C@H](O)[C@H]2O[C@H]2C[C@](C)(N)[C@H](O)[C@H](C)O2)Oc2ccc(cc2Cl)[C@H]1O [vancomycin]
recurrent C. difficile disease (RCDD): 50%
